According to article PMC12748989 (Nature Communications, 2025):

Legend:
[1] = tested on: MDA-MB-231 cells
[2] = tested on: PBMC; settings: 12.5 µM

Structure (SMILES)	Average (percentage cell inhibition), Dmastoparan MDA-MB231 12.5uM [1] [%]	Average (percentage cell inhibition), Mastoparan PBMC [2] [%]
CC[C@H](C)[C@H](N)C(=O)N[C@@H](CCC(N)=O)C(=O)N[C@@H](CC(C)C)C(=O)N[C@@H](CCCCN)C(=O)N[C@@H](C)C(=O)N[C@@H](CC(C)C)C(=O)N[C@@H](C)C(=O)N[C@@H](C)C(=O)N[C@@H](CC(C)C)C(=O)N[C@@H](C)C(=O)N[C@@H](CCCCN)C(=O)N[C@@H](CCCCN)C(=O)N[C@H](C(=O)N[C@@H](CC(C)C)C(N)=O)[C@@H](C)CC [Q2]	33.3572	13.2802
CC[C@H](C)[C@H](N)C(=O)N[C@@H](CC(N)=O)C(=O)N[C@@H](CCC(N)=O)C(=O)N[C@@H](CCCCN)C(=O)N[C@@H](C)C(=O)N[C@@H](CC(C)C)C(=O)N[C@@H](C)C(=O)N[C@@H](C)C(=O)N[C@@H](CC(C)C)C(=O)N[C@@H](C)C(=O)N[C@@H](CCCCN)C(=O)N[C@@H](CCCCN)C(=O)N[C@H](C(=O)N[C@@H](CC(C)C)C(N)=O)[C@@H](C)CC [Q3]	20.3646	10.4738
CC[C@H](C)[C@H](N)C(=O)N[C@@H](CC(N)=O)C(=O)N[C@@H](CC(C)C)C(=O)N[C@@H](CCC(N)=O)C(=O)N[C@@H](C)C(=O)N[C@@H](CC(C)C)C(=O)N[C@@H](C)C(=O)N[C@@H](C)C(=O)N[C@@H](CC(C)C)C(=O)N[C@@H](C)C(=O)N[C@@H](CCCCN)C(=O)N[C@@H](CCCCN)C(=O)N[C@H](C(=O)N[C@@H](CC(C)C)C(N)=O)[C@@H](C)CC [Q4]	34.9808	-3.9555
CC[C@H](C)[C@H](N)C(=O)N[C@@H](CC(N)=O)C(=O)N[C@@H](CC(C)C)C(=O)N[C@@H](CCCCN)C(=O)N[C@@H](CCC(N)=O)C(=O)N[C@@H](CC(C)C)C(=O)N[C@@H](C)C(=O)N[C@@H](C)C(=O)N[C@@H](CC(C)C)C(=O)N[C@@H](C)C(=O)N[C@@H](CCCCN)C(=O)N[C@@H](CCCCN)C(=O)N[C@H](C(=O)N[C@@H](CC(C)C)C(N)=O)[C@@H](C)CC [Q5]	41.3502	0.7115
CC[C@H](C)[C@H](N)C(=O)N[C@@H](CC(N)=O)C(=O)N[C@@H](CC(C)C)C(=O)N[C@@H](CCCCN)C(=O)N[C@@H](C)C(=O)N[C@@H](CCC(N)=O)C(=O)N[C@@H](C)C(=O)N[C@@H](C)C(=O)N[C@@H](CC(C)C)C(=O)N[C@@H](C)C(=O)N[C@@H](CCCCN)C(=O)N[C@@H](CCCCN)C(=O)N[C@H](C(=O)N[C@@H](CC(C)C)C(N)=O)[C@@H](C)CC [Q6]	-10.4473	-3.273
CC[C@H](C)[C@H](N)C(=O)N[C@@H](CC(N)=O)C(=O)N[C@@H](CC(C)C)C(=O)N[C@@H](CCCCN)C(=O)N[C@@H](C)C(=O)N[C@@H](CC(C)C)C(=O)N[C@@H](CCC(N)=O)C(=O)N[C@@H](C)C(=O)N[C@@H](CC(C)C)C(=O)N[C@@H](C)C(=O)N[C@@H](CCCCN)C(=O)N[C@@H](CCCCN)C(=O)N[C@H](C(=O)N[C@@H](CC(C)C)C(N)=O)[C@@H](C)CC [Q7]	23.653	9.246
CC[C@H](C)[C@H](N)C(=O)N[C@@H](CC(N)=O)C(=O)N[C@@H](CC(C)C)C(=O)N[C@@H](CCCCN)C(=O)N[C@@H](C)C(=O)N[C@@H](CC(C)C)C(=O)N[C@@H](C)C(=O)N[C@@H](CCC(N)=O)C(=O)N[C@@H](CC(C)C)C(=O)N[C@@H](C)C(=O)N[C@@H](CCCCN)C(=O)N[C@@H](CCCCN)C(=O)N[C@H](C(=O)N[C@@H](CC(C)C)C(N)=O)[C@@H](C)CC [Q8]	46.0978	5.553
